Results on one compound are retold here after patent publication US20210069230A1, “SYNERGISTIC DRUG COMBINATIONS PREDICTED FROM GENOMIC FEATURES AND SINGLE-AGENT RESPONSE PROFILES” (THE BROAD INSTITUTE, INC., priority 2018, published 2021).

The target of one data set is MGLL (Homo sapiens, UniProt Q99685). In words: Recombinant protein/mass spec assay of MGLL-mediated modification. It counts as biochemical. From the text: The GSK-J4-modifying impact of MGLL is examined further via a recombinant protein/mass spec assay.
The test system of another data set is KMRC3 cells. The experiment in a line: IncuCyte live-cell microscopy of cellular proliferation. The class given is cell-based. Here is the method:
(§1) Cell lines were taken from viably frozen stocks of the same original provenance as for CTRP and DepMap data, with identity confirmed by SNP-based DNA fingerprinting as described previously (12, 13, 39). Cell lines were propagated using the same media and culture conditions as for CTRPv2.0 experiments. […] For live-cell imaging, cells were plated into clear-bottom plates (Corning) and imaged on an IncuCyte S3 throughout the course of the experiment. For CellTiter-Glo experiments, the initial viability of a subset of plated cells was established at the same time as compound addition using CellTiter-Glo as described previously (24). […] DMSO- and D0-normalized concentration-response curves were generated using four-parameter nonlinear regression using the drc package in R (40). Biphasic curves were also fit and prioritized relative to standard four-parameter curves where appropriate using the BIC (Bayesian information criteria) metric. […] General-purpose optimization (Nelder-Mean algorithm) was used for single-agent fits, and the “model” option was used to predict variance. Overall significance was assessed using the bootstrapped meanR test (n=1000 iterations), and per-concentration significance using maxR, as described by the package authors.

For another data set, the system named is HEC1A and SUIT2 cells. The experiment in a line: CRISPR-Cas9 knockout of MGLL, GSK-J4 sensitivity. It counts as cell-based. The following applies: 4 different sgRNAs. Here is the method:
Cas9 stably-infected HEC1A, MEWO, SUIT2, and WM2664 cells and sgRNAs (pXPR_BRD003 vector) targeting AIFM2, IRS2, MGLL, or control guides (non-cutting) were acquired from the GPP (FIG. 23). Cell line identities were confirmed to match parental cells using SNP fingerprinting. Virus was generated and infection carried out as described above. After puromycin selection (3 μg/mL for MEWO, 1.5 μg/mL for WM2664, 2 μg/mL for SUIT2 and HEC1A), cells were seeded in 384-well plates for compound treatment or harvested for Western blotting as described above.
Further, MGLL knockout in HEC1A cells was rescued by overexpression of MGLL when using an sgRNA that targeted MGLL across an intron-exon boundary and that therefore could not cut the MGLL ORF.

For data set [1], the system named is ATF4/metallothionein/ER stress. Particulars: cited from earlier work.
For data set [2] the following is noted: cited from earlier work.
Data set [3] deals with G402 and CJM cells overexpressing MGLL. In words: Lentiviral ORF overexpression, compound sensitivity (CellTiter-Glo, GR). It counts as cell-based. Particulars: 72 hours. On the procedure:
as §1
Infection and selection were carried out according to GPP Viral Infection protocols, followed by cell seeding in 384-well plates for compound treatment or harvesting for Western blotting as described above.
Parental cell lines were virally transduced with cDNAs that constitutively overexpressed BCL2L1, AIFM2, or MGLL (in G402 and CJM cells); ABCB1 or MGMT (in WM2664 cells); SLC7A11 (in BT12 and G402 cells); MCL1 (in HCC1500 cells); or IRS2 (in T47D cells) and subsequently drug sensitivity was measured. To account for potential differences in growth rates and to distinguish between cytostatic and cytotoxic drug responses, the normalized growth rate inhibition (GR) metric was used to assess cell viability (FIG. 3A) (18).

For the next data set, the system named is G402 cells. The experiment in a line: Overexpression of MGLL WT or enzyme-dead MGLL S132A, GSK-J4 sensitivity. It counts as cell-based. On the procedure: Cell lines were taken from viably frozen stocks of the same original provenance as for CTRP and DepMap data, with identity confirmed by SNP-based DNA fingerprinting as described previously (12, 13, 39). Cell lines were propagated using the same media and culture conditions as for CTRPv2.0 experiments. For drug-treatment assays, 1000 cells per well were plated into 30 or […], of media in 384-well plates. For live-cell imaging, cells were plated into clear-bottom plates (Corning) and imaged on an IncuCyte S3 throughout the course of the experiment. For CellTiter-Glo experiments, the initial viability of a subset of plated cells was established at the same time as compound addition using CellTiter-Glo as described previously (24). Remaining cells were exposed to compounds and/or vehicle (constant DMSO volume) using a Tecan D300e Digital Dispenser, and CellTiter-Glo was added 72 hours later. DMSO- and D0-normalized concentration-response curves were generated using four-parameter nonlinear regression using the drc package in R (40). […] For calculation of drug combination effects, curves were fit and deviation from the null model (Loewe additivity) assessed using the BIGL package in R (reference: PMID 29263342) (41). […] Overall significance was assessed using the bootstrapped meanR test (n=1000 iterations), and per-concentration significance using maxR, as described by the package authors. […]

SMILES strings stand for the structures. Bounds are passed on as bounds.

MGLL, sequence (Q99685 whole entry): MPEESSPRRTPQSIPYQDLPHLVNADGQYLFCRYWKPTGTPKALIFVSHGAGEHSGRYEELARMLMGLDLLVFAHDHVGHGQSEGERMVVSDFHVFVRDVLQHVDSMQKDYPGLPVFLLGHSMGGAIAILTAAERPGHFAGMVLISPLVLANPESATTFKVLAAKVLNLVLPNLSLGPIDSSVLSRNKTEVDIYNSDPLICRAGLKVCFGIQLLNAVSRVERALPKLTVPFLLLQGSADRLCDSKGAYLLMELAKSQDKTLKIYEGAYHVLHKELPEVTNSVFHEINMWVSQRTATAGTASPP

In the case of `CCOC(=O)CCNc1cc(N2CCc3ccccc3CC2)nc(-c2ccccn2)n1` [GSK-J4], on MGLL, the MGLL-mediated modification entry is listed as “confirmed”. Also, in the data set on KMRC3 cells, the “rescue of proliferation effects by MGLL” value is on record as “durably rescued” and the “time at which effects on cell proliferation were observed” value was at most 12 h. Further, the “effect of knockout of MGLL on response” value in the data set on HEC1A and SUIT2 cells was “sensitize”. The “time to induction of ATF4/metallothionein/ER stress” value in data set [1] is at most 6 h. The cellular permeability entry in data set [2] is reported as “high cellular permeability”. Further, in data set [3], the “shift in GR50 conferred by MGLL overexpression” value is listed as 20 fold. The “sensitivity of MGLL S132A overexpressing cells versus parental or control-infected cells” value in the data set with G402 cells (MGLL S132A) is reported as “equally sensitive”. Moreover, in the data set with G402 cells (MGLL WT), the “effect of MGLL WT overexpression” value is listed as “significant resistance”.
